From patent publication US9326989B2, “Oleyl phosphocholine” (Max-Planck-Gesellschaft zur Foerderung der Wissenschaften …, priority 2007, dated 2016)

What was measured:
[1] = system: canine leishmaniasis; assay: dosage range (start of activity to start of toxicity) in dog; format: in vivo; conditions: higher doses not tolerated, lower doses almost ineffective
[2] = animal experiments
[3] = stability in injection or infusion solutions or tablets; format: physicochemical; conditions: 30° C.
Source text: For use in veterinary medicine, it is also useful that mixtures of oleyl phosphocholine (90%) and hexadecyl phosphocholine (10%) can be used and can be made available extremely inexpensively from olive oil.

[4] = renal values (creatinine) in long-term applications; format: in vivo; conditions: long-term applications over several months, therapeutically effective dosages
Source text: Oleyl phosphocholine is the first alkyl phosphocholine which can be used orally and intravenously.

| Structure (SMILES) | dose at which activity against canine leishmaniasis started [1] | therapeutic action compared to C18-PC (octadecyl) and C18:1(trans)-PC (elaidyl) [2] | stability [3] | renal values (increase in creatinine) [4] |
| --- | --- | --- | --- | --- |
| CCCCCCCCCCCCCCCCOP(=O)([O-])OCC[N+](C)(C)C [HePC, hexadecyl phosphocholine] | 3 mg per kg body weight per day | – | – | – |
| CCCCCCCC/C=C\CCCCCCCCOP(=O)([O-])OCC[N+](C)(C)C [OlPC, oleyl phosphocholine] | – | markedly superior | can be guaranteed over a longer period | no deterioration in the renal values |
